In US20190201489A1, “COMPOSITIONS AND METHODS FOR PREVENTING BONE LOSS AND/OR STIMULATING BONE HEALING” (NORTHEAST OHIO MEDICAL UNIVERSITY, priority 2016, published 2019):

Assays:
IL-6 mRNA = IL-6 mRNA expression in chondrocytes by TaqMan assay; assay type: cell-based; settings: human chondrocytes stimulated with IL-1β, n=4
Protocol: (§1) Chondrocytes were derived by enzymatic digestion of human cartilage obtained from OA patients (n=14) undergoing knee joint replacement. Chondrocytes were stimulated with IL-1β (5 ng/ml) or treated with Actinomycin D (5 μg/ml) or NFκB inhibitor SC514 (75 μM) or JNK inhibitor (25 μM). Total RNA from grounded cartilage and from chondrocytes was purified using Qiagen RNeasy kit (Qiagen). Reverse transcription was performed using the Quantitect Reverse Transcription kit and the ZCCHC6 or IL-6 mRNA was quantified using TaqMan assays. SiRNA-mediated depletion of ZCCHC6 in human chondrocytes was used to study the effect on inflammatory cytokine expression using a cytokine array (Ray Biotech). Protein expression of IL-6 was studied using Western immunoblotting and quantified by ELISA in culture supernatants. Results were derived using Sigma Plot 12.3 package and p<0.05 was considered significant.

ZCCHC6 = ZCCHC6 expression in IL-1β-stimulated chondrocytes; assay type: cell-based; settings: human chondrocytes stimulated with IL-1β, n=4
Protocol: as §1

## Interleukin-1β [IL-1β]
IL-6 mRNA
  increase in mRNA of IL-6: 4956 fold
ZCCHC6
  increase in expression of ZCCHC6: 11.3 fold
